From patent US20250122155A1, “NOVEL INDOLE DERIVATIVE, PHARMACEUTICAL COMPOSITION COMPRISING SAME, AND USE THEREOF” (MITOIMMUNE THERAPEUTICS INC., priority 2021, published 2025)

Legend:
[1] = tested on: NIH/3T3 cells; experiment: Cell death protective effect in fibroblasts against Erastin, glutamate and RSL3 (LDH); type: cell-based, mouse; details: 24 hours
Procedure: In order to identify the protective effect on fibroblasts, NIH/3T3 cells were divided into 96-well plates by 8×10^3 and cultured for 18 to 24 hours. The compounds of Examples were diluted to final concentrations of 0.1 and 1 μM, treated in each well, and incubated for 15 to 20 minutes. Erastin, glutamate, and RSL3 were treated to have final concentrations of 3 μM, 30 mM, and 3 μM, respectively, and cultured for 24 hours. In order to identify the protective effect of each compound, the degree of LDH extracellular secretion was measured using cytotoxicity LDH assay kit [Dojindo; CK12]. Briefly, at the time when the treatment of the cells with Erastin, glutamate, and RSL3 for 24 hours is completed, the supernatants containing the cells are taken by 70 μL and transferred to a new 96-well plate. The assay buffer included in the kit is added in an amount of 70 μL/well (the same amount as the sample) thereto, and then the plate is wrapped with a foil and the reaction is performed at room temperature for 15 minutes. After observing the changed color of the sample, the stop solution was added in an amount of 35 μL/well thereto, and then the 00 inhibition value was calculated by measuring the absorbance value at a wavelength of 490 nm using an iD3 spectrophotometer.

[2] = tested on: MLE-12 cells; experiment: Cell death protective effect in lung epithelial cells against RSL3 (LDH); type: cell-based, rat; details: MLE-12, RSL3 1.0 μM, 24 hours
Procedure: In order to identify the protective effect on lung epithelial cells, MLE-12 cells were divided into 96-well plates by 5×10^3 and cultured for 18 to 24 hours. The compounds of Examples were diluted to final concentrations of 0.1 and 1.0 μM, treated in each well, and incubated for 20 minutes. RSL3 was treated to have final concentrations of 1.0 μM, respectively, and cultured for 24 hours. In order to identify the protective effect of each compound, the degree of LDH extracellular secretion was measured using cytotoxicity LDH assay kit [Dojindo; CK12]. Briefly, at the time when the treatment of the cells with RSL3 for 24 hours is completed, the supernatants containing the cells are taken by 70 μL and transferred to a new 96-well plate. The assay buffer included in the kit is added in an amount of 70 μL/well (the same amount as the sample) thereto, and then the plate is wrapped with a foil and the reaction is performed at room temperature for 15 minutes.

[3] = tested on: H9C2 cells; experiment: Protective effect on heart cells against t-BHP (LDH release); type: cell-based; details: H9C2, t-BHP 400 μM, 2 hours, read-out: EC50 (μM), Cell Protection Effect against t-BHP in Heart Cells
Method in brief: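 H9C2 cells (1.5×10^4/well, cultured 24 h) were pretreated 15–20 min with compound at 0.01–30 μM final, then exposed 2 h to 400 μM t-BHP. LDH in supernatant was measured colorimetrically at 490 nm after 30 min room-temperature reaction; EC50 derived from protection.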

[4] = tested on: H9C2 cells; experiment: Cell death protective effect in cardiac myocytes against Erastin, glutamate and RSL3 (LDH); type: cell-based, rat; details: 24 hours
Procedure: (§1) In order to identify the protective effect on cardiac cells, H9C2 cells were divided into 96-well plates by 1×10^4 and cultured for 18 to 24 hours. The compounds of Examples were diluted to final concentrations of 0.1 and 1 μM, treated in each well, and incubated for 15 to 20 minutes. Erastin, glutamate, and RSL3 were treated to have final concentrations of 1 μM, 25 mM, and 0.5 μM, respectively, and cultured for 24 hours. In order to identify the protective effect of each compound, the degree of LDH extracellular secretion was measured using cytotoxicity LDH assay kit [Dojindo; CK12]. Briefly, at the time when the treatment of the cells with Erastin, glutamate, and RSL3 for 24 hours is completed, the supernatants containing the cells are taken by 70 μL and transferred to a new 96-well plate. The assay buffer included in the kit is added in an amount of 70 μL/well (the same amount as the sample) thereto, and then the plate is wrapped with a foil and the reaction is performed at room temperature for 15 minutes.

[5] = tested on: NRK-49F cells; experiment: Cell death protective effect in renal fibroblasts against Erastin, glutamate and RSL3 (LDH); type: cell-based, rat; details: 24 hours
Procedure: as §1, with “effect on renal fibroblasts, NRK-49F cells were” for “effect on cardiac cells, H9C2 cells were”, “concentrations of 3 μM, 75” for “concentrations of 1 μM, 25”, “3 μM, 75 mM, and” for “1 μM, 25 mM, and”, “mM, and 3 μM, respectively,” for “mM, and 0.5 μM, respectively,”, “by 70 μl and transferred” for “by 70 μL and transferred”

[6] = NIH/3T3, Erastin 3 μM, compound 0.1 μM
[7] = NIH/3T3, Erastin 3 μM, compound 1.0 μM
[8] = NIH/3T3, Glutamate 30 mM, compound 0.1 μM
[9] = NIH/3T3, Glutamate 30 mM, compound 1.0 μM
[10] = NIH/3T3, RSL3 3 μM, compound 0.1 μM
[11] = NIH/3T3, RSL3 3 μM, compound 1.0 μM
[12] = H9C2, Erastin 1 μM, compound 0.1 μM
[13] = H9C2, Erastin 1 μM, compound 1.0 μM
[14] = H9C2, Glutamate 25 mM, compound 0.1 μM
[15] = H9C2, Glutamate 25 mM, compound 1.0 μM
[16] = H9C2, RSL3 0.5 μM, compound 0.1 μM
[17] = H9C2, RSL3 0.5 μM, compound 1.0 μM
[18] = Glutamate 75 mM, compound 0.1 μM
[19] = Glutamate 75 mM, compound 1.0 μM

Structure (SMILES)	inhibition (%) [1, 6] [%]	inhibition (%) [1, 7] [%]	inhibition (%) [1, 8] [%]	inhibition (%) [1, 9] [%]	inhibition (%) [1, 10] [%]	inhibition (%) [1, 11] [%]	inhibition (%) ([2]; compound 0.1 μM)	inhibition (%) ([2]; compound 1.0 μM)	inhibition (%) [4, 12] [%]	inhibition (%) [4, 13] [%]	inhibition (%) [4, 14] [%]	inhibition (%) [4, 15] [%]	inhibition (%) [4, 16] [%]	inhibition (%) [4, 17] [%]	inhibition (%) ([5]; Erastin 3 μM, compound 0.1 μM)	inhibition (%) ([5]; Erastin 3 μM, compound 1.0 μM)	inhibition (%) [5, 18] [%]	inhibition (%) [5, 19] [%]	inhibition (%) ([5]; RSL3 3 μM, compound 0.1 μM)	inhibition (%) ([5]; RSL3 3 μM, compound 1.0 μM)	other results
COCCOCc1cc(NC2CCOCC2)c2[nH]c(-c3ccccc3)cc2c1 [Example 1, 5-(2-methoxyethoxymethyl)-2-phenyl-N-tetrahydropyran-4-yl-1H-indol-7-amine]	99	100	100	100	100	100	100	100	100	100	96	97	100	98	99	99	100	100	99	99	EC50 [3]: ≤ 0.3 µM
COCCOCc1cc(NCC2CCOCC2)c2[nH]c(-c3ccccc3)cc2c1 [Example 4, 5-2(methoxyethoxymethyl)-2-phenyl-N-(tetrahydropyran-4-ylmethyl)-1H-indol-7-amine]	99	99	100	100	100	100	90	91	100	100	97	96	97	96	99	99	99	100	98	99	EC50 [3]: ≤ 0.3 µM
COCCOCc1cc(NC2CCN(C(C)=O)CC2)c2[nH]c(-c3ccccc3)cc2c1 [Example 30, 1-[4-[[5-(2-methoxyethoxymethyl)-2-phenyl-1H-indol-7-yl]amino]piperidyl]-1-ethanone]	6	100	100	100	100	100	84	95	0	100	90	98	0	96	98	98	97	100	52	98	EC50 [3]: ≤ 0.3 µM
CCOC(=O)c1ccc(NC2CCCCC2)c(N)c1 [Ferrostatin-1, reference compound]	17	99	97	97	100	100	100	100	100	100	98	97	96	96	99	98	95	100	94	99	
